In patent US20020137929A1, “1 - (3-heterocyclylphenyl) isothiourea, -isourea, -guanidine and -amidine herbicidal agents” (Intellectual Property Department, BASF Aktiengesellschaft, priority 1998, published 2002):

Assays:
[1] = system: SAGPY (Arrowhead (Pygmaea)); assay: Postemergence weed control under flooded paddy conditions; format: in vivo, Sagittaria pygmaea; details: postemergence weeds
In short: (§1)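 Herbicidal effect is judged by eye on a 0–9 scale versus control, 3–4 weeks after dosing. Dosing is into flood water kept 1.5–3 cm over the soil, at about 0.0313–0.500 kg/ha in aqueous/acetone 50/50 v/v, on 3–5 cm weeds and 1.5–2.5-leaf rice seedlings.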

AMBEL (Ragweed, Common) = assay: Postemergence herbicidal evaluation; format: in vivo, Ambrosia artemisifolia; details: for AMBEL herbicidal rating: postemergence
In short: (§2)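 Herbicidal effect was judged by eye on a 0–9 scale covering stand, vigor, deformity, size and chlorosis, compared with controls, four to five weeks after seedlings about two weeks old were sprayed (40 psi, ~0.0156–0.500 kg/ha).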

GALAP (Galium) = assay: Postemergence herbicidal evaluation; format: in vivo, Galium aparine; details: for GALAP herbicidal rating: postemergence
In short: as §2

[2] = system: TRZAWR (Wheat, Winter, cv Riband); assay: Postemergence herbicidal evaluation; format: in vivo, Triticum aestivum; details: for TRZAWR herbicidal rating: postemergence
In short: as §2

MOOVA (Monochoria) = assay: Postemergence weed control under flooded paddy conditions; format: in vivo, Monochoria vaginalis; details: postemergence weeds
In short: as §1

[3] = system: CHEAL (Lambsquarters, Common); assay: Preemergence herbicidal evaluation; format: in vivo, Chenopodium album; details: rated 4-5 weeks after treatment; for CHEAL rating: preemergence, 0-9 scale
In short: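 Sown cups got a single aqueous acetone spray of test compound (roughly 0.0156–0.500 kg/ha) before seedlings emerged. Evaluation, 4–5 weeks on, used a 0–9 visual scale covering plant stand, vigor, size, malformation, chlorosis and general appearance compared with controls.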

[4] = Rate 0.0313 kg/ha, rated 3 to 4 weeks after treatment
[5] = Rate 0.0625 kg/ha, rated 3 to 4 weeks after treatment
[6] = Rate 0.1250 kg/ha, rated 3 to 4 weeks after treatment
[7] = Rate 0.2500 kg/ha, rated 3 to 4 weeks after treatment
[8] = rate 0.0313 kg/ha, 3-4 weeks after treatment
[9] = rate 0.0625 kg/ha, 3-4 weeks after treatment
[10] = rate 0.1250 kg/ha, 3-4 weeks after treatment
[11] = rate 0.2500 kg/ha, 3-4 weeks after treatment

SMILES	Herbicidal rating SAGPY [1, 4]	Herbicidal rating SAGPY [1, 5]	Herbicidal rating SAGPY [1, 6]	Herbicidal rating SAGPY [1, 7]	AMBEL herbicidal rating (AMBEL (Ragweed, Common); rate 0.0158 kg/ha)	AMBEL herbicidal rating (AMBEL (Ragweed, Common); rate 0.0315 kg/ha)	AMBEL herbicidal rating (AMBEL (Ragweed, Common); rate 0.0630 kg/ha)	GALAP herbicidal rating (GALAP (Galium); rate 0.0158 kg/ha)	GALAP herbicidal rating (GALAP (Galium); rate 0.0315 kg/ha)	GALAP herbicidal rating (GALAP (Galium); rate 0.0630 kg/ha)	TRZAWR herbicidal rating ([2]; rate 0.0158 kg/ha)	Herbicidal rating MOOVA (MOOVA (Monochoria); [4])	Herbicidal rating MOOVA (MOOVA (Monochoria); [5])	Herbicidal rating MOOVA (MOOVA (Monochoria); [6])	Herbicidal rating MOOVA (MOOVA (Monochoria); [7])	CHEAL rating ([3]; 0.0156 kg/ha)	CHEAL rating ([3]; 0.0313 kg/ha)	CHEAL rating ([3]; 0.0625 kg/ha)	CHEAL rating ([3]; 0.1250 kg/ha)	CHEAL rating ([3]; 0.2500 kg/ha)	also measured
COC(=O)CC1SC(=Nc2cc(-n3c(=O)cc(C(F)(F)F)n(C)c3=O)c(F)cc2Cl)N(C)C1=O (stereo not shown) [Compound 88, Methyl 2-{{2-chloro-5-[3,6-dihydro-3-methyl-2,6-dioxo-4-(trifluoromethyl)-1(2H)-pyrimidinyl]-4-fluorophenyl}imino}-3-methyl-4-oxo-5-thiazolidineacetate]	6.0	9.0	9.0	9.0	9.0	9.0	9.0	4.0	4.0	4.0	5.5	9.0	9.0	9.0	9.0	7.0	9.0	9.0	9.0	9.0	TRZAWR herbicidal rating ([2]; rate 0.0315 kg/ha): 7.0; TRZAWR herbicidal rating ([2]; rate 0.0630 kg/ha): 7.5
C=CCN1C(=O)C(CC(=O)OC(C)C)SC1=Nc1cc(-n2c(=O)cc(C(F)(F)F)n(C)c2=O)c(F)cc1Cl (stereo not shown) [Compound 66, Isopropyl 3-allyl-2-{{2-chloro-5-[3,6-dihydro-3-methyl-2,6-dioxo-4-(trifluoromethyl)-1(2H)-pyrimidinyl]-4-fluorophenyl}imino}-4-oxo-5-thiazolidineacetate]	3.0	4.0	4.0	4.0	6.0	–	–	2.0	–	–	3.5	9.0	9.0	9.0	9.0	–	–	–	–	–	AMBEL herbicidal rating (AMBEL (Ragweed, Common); rate 0.0313 kg/ha): 9.0; AMBEL herbicidal rating (AMBEL (Ragweed, Common); rate 0.0625 kg/ha): 9.0; AMBEL herbicidal rating (AMBEL (Ragweed, Common); rate 0.1250 kg/ha): 9.0; GALAP herbicidal rating (GALAP (Galium); rate 0.0313 kg/ha): 3.0; GALAP herbicidal rating (GALAP (Galium); rate 0.0625 kg/ha): 4.0; GALAP herbicidal rating (GALAP (Galium); rate 0.1250 kg/ha): 9.0; TRZAWR herbicidal rating ([2]; rate 0.0313 kg/ha): 7.0; TRZAWR herbicidal rating ([2]; rate 0.0625 kg/ha): 8.0; TRZAWR herbicidal rating ([2]; rate 0.1250 kg/ha): 7.5; Preemergence herbicidal rating CHEAL ([3]; rate 0.0156 kg/ha): 4.0; Preemergence herbicidal rating CHEAL ([3]; rate 0.0313 kg/ha): 9.0; Preemergence herbicidal rating CHEAL ([3]; rate 0.0625 kg/ha): 9.0; Preemergence herbicidal rating CHEAL ([3]; rate 0.1250 kg/ha): 9.0; Preemergence herbicidal rating CHEAL ([3]; rate 0.2500 kg/ha): 9.0; Preemergence herbicidal rating CHEAL ([3]; rate 0.5000 kg/ha): 9.0
C=CCN1C(=O)C(CC(=O)OC(C)C(=O)OCC)SC1=Nc1cc(-n2c(=O)ccn(C)c2=O)c(F)cc1Cl [Compound 94, 3-Allyl-2-{{2-chloro-5-[3,6-dihydro-3-methyl-2,6-dioxo-1(2H)-pyrimidinyl]-4-fluorophenyl}imino}-4-oxo-5-thiazolidineacetic acid, ester with ethyl lactate, (R,S)-]	0.0	0.0	5.0	9.0	7.0	9.0	9.0	3.0	4.0	4.0	6.0	9.0	9.0	9.0	9.0	9.0	9.0	9.0	9.0	9.0	TRZAWR herbicidal rating ([2]; rate 0.0315 kg/ha): 9.0; TRZAWR herbicidal rating ([2]; rate 0.0630 kg/ha): 8.0
C=CCN1C(=O)C(CC(=O)NOC)SC1=Nc1cc(-n2c(=O)cc(C(F)(F)F)n(C)c2=O)c(F)cc1Cl (stereo not shown) [Compound 85]	3.0	3.0	9.0	9.0	–	–	–	–	–	–	–	9.0	9.0	9.0	9.0	3.0	9.0	9.0	9.0	9.0	AMBEL herbicidal rating (AMBEL (Ragweed, Common); rate 0.0156 kg/ha): 9.0; AMBEL herbicidal rating (AMBEL (Ragweed, Common); rate 0.0313 kg/ha): 9.0; AMBEL herbicidal rating (AMBEL (Ragweed, Common); rate 0.0625 kg/ha): 9.0; AMBEL herbicidal rating (AMBEL (Ragweed, Common); rate 0.1250 kg/ha): 9.0; GALAP herbicidal rating (GALAP (Galium); rate 0.0156 kg/ha): 0.0; GALAP herbicidal rating (GALAP (Galium); rate 0.0313 kg/ha): 1.0; GALAP herbicidal rating (GALAP (Galium); rate 0.0625 kg/ha): 3.0; GALAP herbicidal rating (GALAP (Galium); rate 0.1250 kg/ha): 5.0; TRZAWR herbicidal rating ([2]; rate 0.0156 kg/ha): 3.0; TRZAWR herbicidal rating ([2]; rate 0.0313 kg/ha): 3.5; TRZAWR herbicidal rating ([2]; rate 0.0625 kg/ha): 4.5; TRZAWR herbicidal rating ([2]; rate 0.1250 kg/ha): 5.0; CHEAL rating ([3]; 0.5000 kg/ha): 9.0
COC(=O)CCN1C(=O)CSC1=Nc1cc(-n2c(=O)cc(C(F)(F)F)n(C)c2=O)c(F)cc1Cl [Compound 28, Methyl 2-{{2-chloro-5-[3,6-dihydro-3-methyl-2,6-dioxo-4-(trifluoromethyl)-1(2H)-pyrimidinyl]-4-fluorophenyl}imino}-4-oxo-3-thiazolidinepropionate]	–	–	–	–	–	–	–	–	–	–	–	–	–	–	–	–	–	–	–	–	Herbicidal rating SAGPY [1, 8]: 0.0; Herbicidal rating SAGPY [1, 9]: 0.0; Herbicidal rating SAGPY [1, 10]: 0.0; Herbicidal rating SAGPY [1, 11]: 0.0; Postemergence herbicidal rating AMBEL (AMBEL (Ragweed, Common); Rate 0.0158 kg/ha): 4.0; Postemergence herbicidal rating AMBEL (AMBEL (Ragweed, Common); Rate 0.0315 kg/ha): 4.0; Postemergence herbicidal rating AMBEL (AMBEL (Ragweed, Common); Rate 0.0630 kg/ha): 9.0; Postemergence herbicidal rating GALAP (GALAP (Galium); Rate 0.0158 kg/ha): 3.0; Postemergence herbicidal rating GALAP (GALAP (Galium); Rate 0.0315 kg/ha): 7.0; Postemergence herbicidal rating GALAP (GALAP (Galium); Rate 0.0630 kg/ha): 8.0; Postemergence herbicidal rating TRZAWR ([2]; Rate 0.0158 kg/ha): 5.0; Postemergence herbicidal rating TRZAWR ([2]; Rate 0.0315 kg/ha): 5.0; Postemergence herbicidal rating TRZAWR ([2]; Rate 0.0630 kg/ha): 6.5; Herbicidal rating MOOVA (MOOVA (Monochoria); [8]): 9.0; Herbicidal rating MOOVA (MOOVA (Monochoria); [9]): 9.0; Herbicidal rating MOOVA (MOOVA (Monochoria); [10]): 9.0; Herbicidal rating MOOVA (MOOVA (Monochoria); [11]): 9.0; Preemergence herbicidal rating CHEAL ([3]; rate 0.0625 kg/ha): 0.0; Preemergence herbicidal rating CHEAL ([3]; rate 0.1250 kg/ha): 9.0; Preemergence herbicidal rating CHEAL ([3]; rate 0.2500 kg/ha): 9.0
C=CCN1C(=O)C(CC(=O)O)SC1=Nc1cc(-n2c(=O)cc(C(F)(F)F)n(C)c2=O)c(F)cc1Cl (stereo not shown) [Compound 62, 3-Allyl-2-{{2-chloro-5-[3,6-dihydro-3-methyl-2,6-dioxo-4-(trifluoromethyl)-1(2H)-pyrimidinyl]-4-fluorophenyl}imino}-4-oxo-5-thiazolidineacetic acid]	0.0	0.0	3.0	6.0	–	–	–	–	–	–	–	4.0	9.0	9.0	9.0	–	–	–	–	–	Postemergence herbicidal rating AMBEL (AMBEL (Ragweed, Common); Rate 0.0158 kg/ha): 9.0; Postemergence herbicidal rating AMBEL (AMBEL (Ragweed, Common); Rate 0.0315 kg/ha): 7.0; Postemergence herbicidal rating AMBEL (AMBEL (Ragweed, Common); Rate 0.0630 kg/ha): 9.0; Postemergence herbicidal rating GALAP (GALAP (Galium); Rate 0.0158 kg/ha): 1.0; Postemergence herbicidal rating GALAP (GALAP (Galium); Rate 0.0315 kg/ha): 5.0; Postemergence herbicidal rating GALAP (GALAP (Galium); Rate 0.0630 kg/ha): 5.0; Postemergence herbicidal rating TRZAWR ([2]; Rate 0.0158 kg/ha): 5.0; Postemergence herbicidal rating TRZAWR ([2]; Rate 0.0315 kg/ha): 5.5; Postemergence herbicidal rating TRZAWR ([2]; Rate 0.0630 kg/ha): 7.0; Preemergence herbicidal rating CHEAL ([3]; rate 0.0156 kg/ha): 7.0; Preemergence herbicidal rating CHEAL ([3]; rate 0.0313 kg/ha): 9.0; Preemergence herbicidal rating CHEAL ([3]; rate 0.0625 kg/ha): 9.0; Preemergence herbicidal rating CHEAL ([3]; rate 0.1250 kg/ha): 9.0; Preemergence herbicidal rating CHEAL ([3]; rate 0.2500 kg/ha): 9.0
CN1C(=O)C(CC(N)=O)SC1=Nc1cc(-n2c(=O)cc(C(F)(F)F)n(C)c2=O)c(F)cc1Cl (stereo not shown) [Compound 92, 2-{{2-Chloro-5-[3,6-dihydro-3-methyl-2,6-dioxo-4-(trifluoromethyl)-1(2H)-pyrimidinyl]-4-fluorophenyl}imino}-3-methyl-4-oxo-5-thiazolidineacetamide]	0.0	0.0	4.0	9.0	0.0	9.0	9.0	0.0	3.0	4.0	5.0	9.0	9.0	9.0	9.0	9.0	9.0	9.0	9.0	9.0	TRZAWR herbicidal rating ([2]; rate 0.0315 kg/ha): 6.0; TRZAWR herbicidal rating ([2]; rate 0.0630 kg/ha): 6.5
